The record followed here is US11141406B2, “Pharmaceutical compounds” (REVIRAL LIMITED, priority 2017, dated 2021).

Holding throughout (assay type): cell-based
Test [1] relates to RSV A2 VR-1540. As to the kind of experiment: RSV plaque reduction assay, typical conditions (HEp-2 cells). The note with it: human respiratory syncytial virus. As for the experimental part:
The plaque reduction assay was typically performed as follows. HEp-2 cells (ATCC, CCL23) were passaged in flasks and seeded in 96-well plates in DMEM containing antibiotics and supplemented with 10% FBS. During inoculation and subsequent incubation, cells were cultured in DMEM containing 3% FBS. 100 plaque forming unit (PFU)/well of RSV (RSV A2 VR-1540) was mixed with ten serial dilutions of compound. Subsequently, 100 μL of the virus/compound mixtures was added to confluent HEp-2 cell monolayers. The cells and virus/compound mixtures were incubated at 35° C. in a humidified 5% CO2 incubator for 1 day.
Cells were washed twice with PBS before adding 50% v % v EtOH/MeOH, and then stored at −20° C. On the day of the staining, fixative was first removed from the plates. Plates were washed 3× with PBS. A pre-titrated amount of the primary antibody was added in 60 μL PBS/2% milk powder, and plates incubated for 1 h at rt. The plates were washed 3× with PBS/0.05% Tween20 before addition of goat anti-mouse horse radish peroxidase in 60 μL PBS/2% milk powder, and incubated for 1 h at rt. Following three wash steps with PBS/0.05% Tween20, 60 μL ready-to-use TrueBlue was added and plates were incubated at it for 10-15 min before adding MilliQ water. Plates were washed once with water, incubated for 30-60 min and after removal of water, air-dried in the dark.
(§1) Plates were scanned and analyzed using the Immunospot S6 UV analyzer, which is equipped with BioSpot analysis software for counting immunostained plaques (virospots). Plaque counts were used to calculate % infection relative to the mean of the spot count (SC) in the virus control wells for RSV. IC50/IC90 values were calculated as 50% or 90% reduction in signal, respectively, by interpolation of inhibition curves fitted with a 4-parameter nonlinear regression with a variable slope in GraphPad 5.0 (Prism). Alternatively, where noted the plaque reduction assay was performed as follows. Hep G2 cells (ECACC, 85011430) were passaged in flasks and seeded in 12-well plates in DMEM containing antibiotics and supplemented with 10% FBS, 24 h prior to inoculation. During inoculation and subsequent incubation, cells were cultured in DMEM containing 2% FBS. 75 plaque forming unit (PFU)/well of RSV (RSV A2, 0709161v) was mixed with 8 serial dilutions of compound. Subsequently, 200 μL of the virus/compound mixtures was added to confluent Hep G2 cell monolayers, for a 2 h infection, with manual shaking every 15 min. Infectious supernatant was then removed and replaced with 2 mL of overlay, comprising 4 parts of DMEM+2% FBS and 1 part 4% CMC, with 0.25% DMSO. The cells were incubated at 37° C. in a humidified 5% CO2 incubator for 5 days.

The subject of test [2] is RSV fusion (HEK293T cells transfected with pCDNA3.1_A2_F). Kind of test: RSV fusion assay. To be noted: human respiratory syncytial virus, HEK-293T, read-out: RSV Fusion Assay (n ≥ 2) IC50. As for the experimental part: HEK293T ((ECACC 12022001) cells were cultured in T75 culture flasks in Dulbecco's medium (DMEM) containing 10% Foetal Bovine serum (FBS), 50 units per mL Penicillin and 50 μg/mL Streptomycin and warmed to 37° C. prior to use. The cells were passaged by first washing briefly with 5 mL Phosphate buffered saline (PBS), followed by addition of 2 mL of Trypsin Ethylenediaminetetraacetic acid (EDTA) to detach the cells. Once cells had detached from the flask, 8 mL media was then added to and the cells dispersed via pipetting against the bottom of the flask.
The cells were counted and diluted to 3×10^5 cells/mL in fresh media. Two T75 flasks were each seeded with 15.6 mL diluted cells, cells were also subcultured at a ratio of between 1:2 and 1:10, to continue the stock. The flasks were then incubated for 24 h at 37° C. and 5% CO2.
The plasmid DNA (for pFR-Luc and pcDNA3.1_Gal4/NFKB) to be transfected into the HEK 293T cells was first prepared in serum free media (Opti-MEM, Invitrogen), containing the transfection reagent FuGENE® 6 (Promega). Serum free media was placed in a 1.5 mL eppendorf tube then the FuGENE 6 was added into the media. The tube was vortexed for 1 s before being incubated at RT for 5 min. 7.79 ng of both pFR_luc and pCDNA3.1_A2_F plasmid DNA were added to tube 1 and 7.79 ng of pCDNA3.1_GAL4-NF-κB plasmid to tube 2. The tubes were vortexed for 1 second and then incubated at room temperature for 15 min. Each transfection mixture was then added into the media of one of the T75 flasks of 293T cells. Cells were cultured for 24 h at 37° C., 5% CO2 in a humidified incubator.
Compounds were diluted (in a polypropylene round-bottomed 96 well plate) 1:3 in a twelve point dilution curve to give top [final] of either 25 μM, 3 μM, 1 μM or 500 nM. A control compound was included in every assay at a top concentration of 3 μM. Transfected cells were counted and diluted to 4×10^5 cells/mL in fresh media. 50 μL of transfection population 1 were added to all wells of the 96 well flat bottom white opaque assay plates. 100 μL diluted compound (2 rows per compound), control compound (one row) and controls (DMSO (0% inhibition, four wells), 3 μM positive control (100% inhibition, four wells) and media (transfection population 1 only, four wells) were added to the appropriate wells. 50 μL of the diluted (4×10^5 cells/mL) population 2 cells when then added to all wells, except the four wells of transfection population 1 only where an extra 50 μL of this cells population was added.
The plates were then incubated for 24 h at 37° C. and 5% CO2. After this time, 100 μL was removed from all wells and 60 μL of ONE-Glo™ (Promega) reagent, pre-equilibrated to room temperature, was added. Plates were then incubated for 3 min at room temperature before luminescence was read, using the ONE-Glo protocol, on the GloMax Explorer System (Promega) multimode reader. Analysis was carried out in Dotmatics software. All raw data were background subtracted (subtraction of mean 3 μM positive control value), before IC50 calculation.

For test [3], the system named is RSV A2, 0709161v. As to the kind of experiment: RSV plaque reduction assay, alternative conditions (Hep G2 cells). The note with it: human respiratory syncytial virus, HepG2, mean of at least 2 independent experiments, read-out: RSV Plaque Reduction Assay Strain A2 IC50. As for the experimental part:
as §1
Overlay was removed, and cells were washed with PBS before fixing with a mixture of 75% acetone 25% methanol for 3 minutes and replacing with fresh PBS. […] Staining was carried out whilst shaking at 37° C. First the plates were blocked with 500 uL PBS-T/2% milk powder per well, for 1 hr. This was then replaced with 250 uL PBS-T/2% milk powder containing a pre-titrated amount of the primary antibody (ab1128), for 90 min. The plates were washed 3×5 min with PBS-T, before addition of rabbit anti-goat horse radish peroxidase (AP106P) in 250 μL PBS-T/2% milk powder, and incubated for 1 hr. […]
Plates were scanned and analysed using the Immunospot S6 Macro analyzer, which is equipped with BioSpot analysis software for counting immunostained plaques. […]

Molecules are shown by their SMILES.

Take `CS(=O)(=O)N1CCN(CCCn2c(CN3C(=O)C(F)(F)c4ccccc43)nc3cc(Cl)ccc32)CC1` [Compound 2, 1-({5-Chloro-1-[3-(4-methanesulfonylpiperazin-1-yl)propyl]-1H-1,3-benzodiazol-2-yl}methyl)-3,3-difluoro-2,3-dihydro-1H-indol-2-one]: in test [1] (typical protocol, read-out: RSV Plaque Reduction Assay Strain A2 IC90), the IC90 is 35 nM. For the same compound, the IC50 in test [1] (†: typical protocol, n = 1, read-out: RSV Plaque Reduction Assay Strain A2 IC50) was determined as 5 nM; in test [2], 16 nM.
As to `CS(=O)(=O)N1CCC(n2c(CN3C(=O)C(F)(F)c4ccccc43)nc3cc(Cl)ccc32)CC1` [Compound 8, 1-{[5-Chloro-1-(1-methanesulfonylpiperidin-4-yl)-1H-1,3-benzodiazol-2-yl]methyl}-3,3-difluoro-2,3-dihydro-1H-indol-2-one], the IC50 in test [2] was determined as 1.7 nM; in test [3], 3.5 nM.
